Laboratory results taken from patent publication US20250303006A1, “BIOCOMPATIBLE ANTISEPTIC COMPOSITION CONTAINING 9-HYDROXYCALABAXANTHONE AND/OR RELATED XANTHONES” (UNIVERSITAT DE LES ILLES BALEARS, priority 2022, published 2025).

What was measured:
S. pyogenes = S. pyogenes culture and proliferation assay; format: cell-based, Streptococcus pyogenes; conditions: 0.0002% HCX, 24 h
Experimental: (§1) S. pyogenes was grown from frozen stocks in Tryptic Soy Broth (TSB) (Scharlab), at 37° C. under aerobic conditions in an orbital shaker (180 rpm). After overnight incubation, 1 mL of bacterial suspensions were incubated with different concentrations of CHX (0.01, 0.005, 0.003, 0.001, 0.0001%) and HCX (0.003, 0.002, 0.001, 0.0002, 0.00002%) for 24 hours at 37° C. under aerobic conditions in an orbital shaker (180 rpm). Bacterial suspension without treatment served as negative control (C−). The optical density (OD) was measured at 600 nm at 0 h and 24 h to determine bacterial proliferation (PowerWave Ht). The bacterial growth rate (μ) was calculated during the exponential growth phase following the equation ln ODt−ln OD0=μ×(t−t0) (n=4). The live/Dead ratio of bacteria was determined using the LIVE/DEAD BacLight bacterial viability kit (Invitrogen), following the manufacturer's instructions. The assays were carried out in triplicate.

bacterial plaque biofilm = assay: In vitro bacterial plaque biofilm formation from pooled human saliva; format: cell-based; conditions: 0.05% HCX solution, slides immersed 2 min on days 2 and 3; equal to 0.2% chlorhexidine
Experimental: This is an in vitro study using pooled human saliva as a test substrate to compare the ability of 9-hydroxycalabaxanthone (HCX) versus chlorhexidine (CHX) and control to prevent or reduce plaque biofilm buildup.
Human saliva from different donors was collected and pooled. 15 ml of the pooled saliva supplemented with 0.1% sucrose was pipetted into sterile 40 ml containers and then a glass microscope slide was submerged below 2 cm of saliva in each container and incubated at 37° C. for bacterial biofilm formation. Twice a day the slide was immersed in TSB culture medium. On days 2 and 3, the biofilm was treated with different groups: (1) a solution containing 0.05% 9-hydroxycalabaxanthone (HCX) (n=6), (2) a solution containing 0.2% chlorhexidine (CHX) (n=6), and a solution containing water (C−) (n=6), by immersing the slides for 2 min in the test of the assigned product. […] The removed biofilms were subjected to sonication using three 15 s pulses with a power of 7 W. The homogenized bacterial suspension was used to determine the bacterial viability both by quantification of colony-forming units (CFU) per mL and by LIVE/DEAD assay.
For the Bacterial viability assay, an aliquot (0.1 mL) of the homogenized bacterial suspension was serially diluted and plated on TSB agar. The plates were incubated in 5% CO2 at 37° C. for 48 h, and then the number of CFU/mL was determined. […]

S. mutans = S. mutans culture and proliferation assay; format: cell-based, Streptococcus mutans; conditions: 5 h
Experimental: as §1, with “mutans CECT 479 (obtained from The Spanish Type Culture Collection (CECT), University of Valencia)” for “pyogenes”, “BHI broth” for “Tryptic Soy Broth (TSB)”, “5” for “24”, “(n=3).” for “(n=4).”, “triplicate, with two replicates at each condition (n=3).” for “triplicate.”
The bacteria S. mutans was cultured and treated with different commercial periodontal gels and HA formulated with 0.1%, 0.05%, and 0.01% HCX and aMG for 24 h. The gels were tested at a concentration of 5% (v/v), and the experiment was run like in experiment 8 of section 8.1.

S. epidermidis = S. epidermidis culture and proliferation assay; format: cell-based, Staphylococcus epidermidis
Experimental: S. epidermidis 4814 (CECT, Valencia, Spain) were grown from frozen stocks in Luria-Bertani (LB) broth (Scharlab, Sentmenat), at 37° C. under aerobic conditions in an orbital shaker (180 rpm). After an overnight incubation, 1 mL of bacterial suspensions were incubated with different concentrations of HCX (0.003, 0.002, 0.001, 0.0002, 0.00002%) for 24 hours at 37° C. under aerobic conditions in an orbital shaker (180 rpm). Bacterial suspension without treatment served as negative control, and CHX at 0.001% served as positive control for bacterial growth inhibition. The optical density (OD) was measured at 600 nm at 0 h, 10 h and 24 h to determine bacterial proliferation (PowerWave Ht, Biotek instruments, Winooski, VT, USA). Bacterial growth rate (μ) was calculated during the exponential growth phase following the equation ln ODt−ln OD0=μ×(t−t0). Live/Dead ratio of bacteria was determined using the LIVE/DEAD BacLight bacterial viability kit (Invitrogen, Thermo Fisher Scientific, Waltham, MA, USA), following manufacturer's instructions. The assays were carried out in triplicate, with two replicates at each condition (n=6). […]

## COc1c(O)cc2oc3cc4c(c(O)c3c(=O)c2c1CC=C(C)C)C=CC(C)(C)O4 [HCX, 9-hydroxycalabaxanthone]
S. pyogenes
  bacteria eliminated: 100%
Bacterial plaque biofilm
  plaque biofilm bacteria formation (live/dead ratio, CFU/mL): reduced plaque biofilm bacteria formation
S. mutans; 0.0002% HCX
  bacteria eliminated: 70%
S. mutans; 0.001% HCX
  bacteria eliminated: 90%
S. epidermidis; 0.001% HCX, 10 h
  bacteria eliminated: 100%
S. epidermidis; 0.003% HCX, 24 h
  bacteria eliminated: 80%
